Source: patent publication US10233498B2, “Therapeutic agent for emphysema and COPD” (TRUSTEES OF BOSTON UNIVERSITY, priority 2011, dated 2019)
“Also recorded” adds a separate entry of the source.

Key:
[1] = system: β1-integrin; experiment: Immunoblotting for β1-integrin in HFL-1 cells; format: cell-based, human; details: HFL-1, 48 hrs, FIG. 8A
Protocol: (§1) Normal human diploid lung fibroblasts (HFL-1) were obtained from the American Type Culture Collection (Manassas, Va.) and used between 3-5 consequent passages after thawing of frozen cells. HFL-1 cells were placed in 6-well culture plates (BD Biosciences, Mississauga, ON) at a density of 1×10^5 cells per well in complete cell culture medium (CCM, DMEM supplemented with 10% FBS, 2 mM L-glutamine and 1% of antibiotic solution; Invitrogen, Burlington, ON). Cells were cultured at 37° C. and 5% CO2 in CCM before they reached 80% confluence. Cells were quiesced in CCM with 1% FBS overnight. […] Cells exposed to the CCM with added DMSO served as a vehicle control. Experiments were repeated 3 times using HFL-1 cells during 3 consequent cell culture passages. Total RNA was isolated from HFL-1 monolayers using RNeasy Plus Mini-Kit (Qiagen, Valencia, Calif.) as per manufacturer's instructions. Quantity and quality of the isolated RNA was determined using Agilent 2100 Bioanalyzer (Agilent Technologies, Mississauga, ON). Isolated RNA was processed and hybridized onto the Human Gene 1.0 ST array (Affymetrix Inc., Santa Clara, Calif.) according to the manufacturer's protocol. Transcript-level gene expression estimates were generated using RMA with the Entrez gene CDF version v11. […] Gene expression profiles were ranked for each treatment by t-statistic.
Production of β1-integrin by HFL-1 cells was assessed by immunoblotting as previously described (Pechkovsky, D. V. et al. The Journal of biological chemistry 2008 283:12898-908). Briefly, total cell protein was extracted from cultured HFL-1 using Cell Protein Extraction Buffer (Biosource, Camarillo, Calif.), quantified by DC Protein Assay (Bio-Rad, Hercules, Calif.), resolved by SDS-PAGE, and transferred to nitrocellulose membranes. Membranes were probed with mouse anti-human β1-integrin antibody (clone 419127, R&D Systems, Minneapolis, Minn.) and anti-β-tubulin antibody (Millipore, Billerica, Mass.) as a loading control. […] Density of the bands was quantified using Odyssey software 2.1 (LI-COR Biosciences). […]

[2] = system: human lung fibroblasts (HFL-1); experiment: Gene expression profiling (microarray, GSEA) of treated HFL-1 fibroblast cultures; format: cell-based
Protocol: GSEA was used to explore connections to other datasets. Genes in this dataset were ranked by the t-statistic of the Lm term in the linear model represented by equation (2) shown above. […] For those datasets where raw data was available, the Entrez gene chip definition file (CDF) was used to obtain RMA normalized expression values. Genes from these datasets were ranked by t-statistic. For dichotomous variables, the t-statistic was calculated from a comparison of expression levels observed in the two groups (e.g. cases and controls). For continuous variables, the t-statistic was from a linear model of expression as a function of the continuous variable (e.g. FEV1). Datasets that measured the effect of TGFβ ligands on gene expression in various cell types included Chambers et al., (The American journal of pathology 2003162:533-46) Verrecchia et al., (The Journal of biological chemistry 2001 276:17058-62), GSE749712, GSE545010, GSE665314, GSE1171013, and GSE172415. Lists of genes that change with TGFβ exposure were taken from the publication associated with the microarray data. If lists of at least 25 genes could not be obtained from the literature, the raw data was used from GEO and normalized as described above. The 200 genes with the highest fold change and the 200 genes with the lowest fold change were used as gene sets and compared to a list of all genes from this dataset ranked by their correlation to Lm.
as §1

With “TGFβ1: recombinant human TGFβ1 (10 ng/ml, PeproTech)” the “β1-integrin (ITGB1) protein levels vs vehicle (DMSO) treated controls” value (shortened to “β1-integrin … vs vehicle (DMSO) treated controls”) ([1]; TGFβ 10 ng/mL, p<0.05) was “significantly induced”, the “β1-integrin … vs vehicle (DMSO) treated controls” value ([1]; TGFβ 10 ng/mL, p<0.05, listed as TGFβ) was “increase” and the “GSEA: genes most induced by treatment among genes that decrease in expression with increasing regional emphysema severity” value ([2]; TGFβ1 10 ng/ml, human lung fibroblasts, FDR<0.05, FIG. 7A) was “enriched”.
Glycine-Histidine-Lysine [GHK] was tested, and the “β1-integrin … vs vehicle (DMSO) treated controls” value ([1]; GHK 0.1 or 10 nM, p<0.01) was “significantly induced; also recorded: increase”, the “GSEA: genes that increase after treatment among genes whose expression decreases with increasing emphysema” value ([2]; GHK 0.1 nM or 10 nM (either concentration), HFL-1, FIG. 7A) was “enriched” and the “GSEA: 200 genes most induced by GHK at 1 μM in CMap cancer cell lines among genes that increase with treatment in HFL-1” value ([2]; GHK 0.1 nM, 48 hrs, HFL-1, FIG. 7B) was “enriched”. For the same substance, the ITGB1 expression profile ([2]; GHK 0.1 nM, HFL-1, p=0.004) was “significantly upregulated”, the “GSEA: genes whose expression is decreased with increasing emphysema severity among genes induced by treatment” value ([2]; GHK 10 nM, 48 hrs, HFL-1, FIG. 7C) was “enriched” and the “GSEA: genes whose expression is altered by GHK treatment among genes that change with TGFβ1 treatment” value ([2]; GHK at either concentration (0.1 nM, 10 nM), HFL-1, FIGS. 7B-7D) was “enriched”.
